Experiments:
[1] = tested on: TXA2-specific GTPase in human platelet membranes; assay: TXA2 receptor-coupled GTPase activity in human platelet membranes; format: biochemical
Experimental: Platelets were prepared from plateletpheresis units as described (Benka, M. L. et al., 1995, supra; Zhu, Y. et al., 1994, supra).
TXA2-stimulated GTPase activity was measured in platelet membranes by initiating reactions by the addition of 20-45 μg of platelet membranes to tubes in the absence or presence of 10 μM of the thromboxane analog, U46619, (Benka, M. L. et al., The MBL Physiology Course, Busa, W. B. & Mendelsohn, M. E., 1995, FEBS Lett. 363: 49-52). The final reaction mixture (total volume=100 μl) contained 0.4 μM GTP, including 0.6-0.9 μCi of [γ-^32P]GTP(1.5-2×10^6 dpm), as well as 100 mM NaCl, 0.1 mM EGTA, 2 mM MgCl2, 1 mM dithiothreitol, 0.1 mM ATP, 5 mM phosphocreatine, 100 units/ml creatine phosphokinase, 0.2% bovine serum albumin, 50 mM triethanolamine HCl, pH 7.4, and indicated concentrations of agonist.
[…] GTPase reactions were terminated with 5% activated charcoal/20 mM phosphoric acid, and high affinity GTPase activity was measured and calculated (Shenker, A. et al., 1991, J. Biol. Chem. 268: 26011-26017; Benka et al., supra).

[2] = target: T1, TXA2 receptor (Homo sapiens, UniProt P21731); assay: In vivo phosphorylation of TXA2 receptors in 32P-labeled HEL cells; format: cell-based
T1 construct: HEL cells, which contain high densities of the platelet TXA2 receptor; endogenous in cells; host or cells: HEL cells
T1 sequence (P21731 1-343): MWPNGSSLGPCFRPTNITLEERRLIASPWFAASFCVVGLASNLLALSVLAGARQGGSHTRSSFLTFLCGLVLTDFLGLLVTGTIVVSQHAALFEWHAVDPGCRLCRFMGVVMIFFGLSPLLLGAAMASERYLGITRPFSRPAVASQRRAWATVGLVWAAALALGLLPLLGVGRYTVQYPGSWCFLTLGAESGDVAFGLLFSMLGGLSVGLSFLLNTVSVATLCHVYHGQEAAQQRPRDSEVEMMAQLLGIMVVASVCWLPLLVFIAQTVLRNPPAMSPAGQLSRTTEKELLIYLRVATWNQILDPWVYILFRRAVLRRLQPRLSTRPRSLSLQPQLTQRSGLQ
Experimental: To examine whether cGMP can lead to phosphorylation of TXA2 receptors in vivo, studies were performed using HEL cells, which contain high densities of the platelet TXA2 receptor (Allan, C. J. et al., 1996, J. Pharmacol. Exp. Ther. 277:1132-1139; Mayeux, P. R. et al., 1989, J. Pharmacol. Exp. Ther. 250:923-927).
HEL cells were labeled with ^32P (Mendelsohn, M. E. et al., 1991, supra) and then exposed to buffer alone (10 minutes), U46619 (5 μM, 10 minutes), or 8-Br-cGMP (10 mM, 15 minutes). Reactions were terminated by addition of ice-cold TEB buffer: 20 mM Tris-Cl, pH 7.4, 5 mM EGTA, 0.128 mg/ml phenylmethylsulfonyl fluoride, 0.15 mg/ml benzamidine Cl, followed by preparation of solubilized TXA2 receptor fractions in CHAPS buffer: 20 mM Tris-Cl, pH 7.4, 5 mM EGTA, 25% glycerol, 0.128 mg/ml phenylmethylsulfonyl fluoride, 0.15 mg/ml benzamidine Cl, 10 mM CHAPS (Schror, K. et al., 1995, Biochem. Pharmacol. 49: 921-927). TXA2 receptor fractions were then purified on and eluted from TXA2 antibody affinity beads, resolved by SDS-PAGE, and transferred to nitrocellulose. Receptor was quantified by immunoblotting and phosphorylation was quantitated by PhosphorImager analysis (Mendelsohn, M. E. et al., 1991, supra). […]

[3] = tested on: Gαq/Gα11; assay: Immunoprecipitation of Gαq/Gα11 from 32P-labeled platelets; format: cell-based, human; settings: 32P-labeled platelets treated with compound
Source text: (§1) In separate immunoprecipitation experiments, we also examined whether Gαq/Gα11 or its effector PLCβ, were phosphorylated in response to NO or cGMP. Anti-Gαq/Gα11 antibodies were obtained from D. Manning (University of Pennsylvania; Woolkalis, M. J. et al., 1986, J. Biol. Chem. 261:3408-3413).

[4] = tested on: thrombin receptor; assay: Thrombin receptor-mediated vascular smooth muscle cell activation; format: cell-based; settings: FIG. 6A-6C; effect reversed by inhibition of G kinase
Source text: The activation of vascular smooth muscle cells by thrombin receptor is inhibited by nitric oxide (FIG. 6A). […] This effect is reversed by inhibition by G kinase.

[5] = tested on: PLCβ; assay: PLCβ phosphorylation in platelets (PLCβ antibodies); format: cell-based, human; settings: monoclonal and polyclonal PLCβ antibodies
Source text: as §1

Structure (SMILES): Nc1nc2c(nc(Br)n2[C@@H]2O[C@@H]3COP(=O)(O)O[C@H]3[C@H]2O)c(=O)[nH]1 [8-Br-cGMP, 8-bromo-cyclic GMP]
- IC50 ([1]; platelet membranes pretreated 10 minutes at room temperature before U46619 stimulation, n=3 experiments in triplicate, read-out: mean IC50, inhibition of U46619-stimulated GTPase activity): 75 nM
- decrease of basal platelet membrane GTPase activity ([1]; pretreatment with 500 μm 8-Br-cGMP, n=4): 8±9%
- TXA2 receptor phosphorylation ([2]; 10 mM, 15 minutes): clear and significant increases in TXA2 receptor phosphorylation to a level comparable with agonist-induced phosphorylation
- Gαq/Gα11 G protein phosphorylation [3]: did not demonstrate any significant G protein phosphorylation

Structure (SMILES): CC(=O)N[C@@H](CSN=O)C(=O)O [S-nitroso-N-acetylcysteine]
- Gαq/Gα11 G protein phosphorylation [3]: did not demonstrate any significant G protein phosphorylation

Structure (SMILES): CCCCC[C@H](O)/C=C/[C@@H]1[C@@H](C/C=C\CCCC(=O)O)[C@H]2CO[C@@H]1C2 [U46619]
- average increase in GTPase activity (stimulation of TXA2-specific GTPase) ([1]; untreated platelet membranes, 10 μM U46619, n=three experiments in triplicate): 5.5±1.3 pmol of 32P/min/mg platelet pr
- TXA2 receptor phosphorylation ([2]; 5 μM, 10 minutes): phosphorylated

Structure (SMILES): Nc1nc2c(ncn2[C@@H]2O[C@@H]3COP(=O)(O)O[C@H]3[C@H]2O)c(=O)[nH]1 [cyclic GMP]
- inhibition of thrombin receptor-mediated vascular smooth muscle cell activation [4]: inhibition
- phosphorylation of PLCβ [5]: no increase in phosphorylation of PLCβ

Structure (SMILES): [N]=O [nitric oxide]
- inhibition of thrombin receptor-mediated vascular smooth muscle cell activation [4]: inhibited
- phosphorylation of PLCβ [5]: no increase in phosphorylation of PLCβ

From patent publication US6352833B1, “Methods for discovery of vasoactive compounds for the nitric oxide-cyclic GMP signal pathway” (priority 1999, dated 2002)
